Test [1] can be described thus: rat carrageenan paw edema assay. The test is classed as in vivo, rat (male Sprague-Dawley). The conditions noted are these: po, 3 h, read-out: Oral ED50 (95% C.L.). The method, then:
The compounds of the invention are further tested in the rat carrageenan paw edema assay to determine their ability to inhibit the acute inflammatory response. This assay is carried out as follows: 140-180 gm male Sprague-Dawley rats, in groups of 6 animals are injected subcutaneously in the right paw with 0.1 ml of 1% carrageenan at zero time. Mercury plethysmographic readings (ml) of the paw are made at zero time and 3 hours later. Test compounds are suspended or dissolved in 0.5% methylcellulose and given perorally 1 hour prior to carrageenan administration. The increase in paw volume (edema in ml.) produced by the carrageenan is measured. […] Unpaired Student's t-test is used to determine statistical significance.

Test [2] has as its system synthesis of LTC4 by murine peritoneal macrophages. The test is described as follows: inhibition of the synthesis of LTC4 by murine peritoneal macrophages. The note with it: Mus musculus, Peritoneal macrophage, zymosan or TPA stimulus, RIA. It counts as cell-based, mouse (CD-1). The protocol: (§1) The ability of the compounds of the invention to inhibit both leukotriene and prostaglandin synthesis is examined in an assay which measures the ability of the compounds of the invention to inhibit the synthesis of PGE2 and LTC4 by murine peritoneal macrophages.
(§2) The assay is carried out as follows:
(§3) Macrophages are removed from the peritoneal cavity of 55-57 day old CD-1 mice (killed by CO2 asphyxiation) by peritoneal lavage and centrifuged at 400×g for ten minutes. The cells are resuspended in Medium 199 and 4×10^6 cells are allowed to adhere on 35×10 mm Petri dishes for 1.5 hours at 37° C. in an atmosphere of 95% air and 5% CO2. The cell monolayers are washed and incubated overnight in Medium 199 supplemented with 10% heat inactivated bovine serum containing 1 μCi[^14 C]-arachidonic acid, or in the absence of ^14 C-arachidonic acid when the supernatant is to be assayed by radioimmunoassay (RIA). The labeled cells are then washed and incubated at 37° C. for 2 hours in Medium 199 with the prostaglandin stimuli, zymosan, or 12-o-tetradecanoyl-phorbol-13-acetate (TPA) and in the presence or absence of test compounds. Following incubation, the supernatant is removed and subjected to radioimmunoassay in order to determine the percent inhibition of prostaglandin E2 and leukotriene C4 by the test compounds.

The test system of test [3] is synthesis of LTB4 by rat glycogenelicited polymorphonuclear leukocytes (PMN). Briefly: inhibition of the synthesis of LTB4 (lipoxygenase oxidation product) by rat glycogen-elicited polymorphonuclear leukocytes (PMN). The note with it: Leukocyte, A23187 stimulated. The test is classed as cell-based, rat (female Wistar). The protocol: This is especially true with respect to 5,12-diHETE, which also denoted as LTB4 [see Ford-Hitchinson, J. Roy. Soc. Med., 74, 831 (1981)]. The assay of this Example measures the ability of the compounds of the invention to inhibit the synthesis of LTB4 by rat glycogenelicited polymorphonuclear leukocytes (PMN).
as §2
(§4) Rat polymorphonuclear leukocytes (PMNs) are obtained from female Wistar rats (150-200 g) which receive an injection of 6% glycogen (10 ml i.p.). Rats are sacrificed 18-24 hours post injection by CO2 asphyxiation and the elicited cells are harvested by peritoneal lavage using physiological saline (0.9% NaCl). The exudate is centrifuged at 400×g for 10 minutes. The supernatant fluid is discarded and the cell pellet is resuspended in a concentration of 2.0×10^7 cells/ml in HBSS containing Ca^++ and Mg^++ and 10 μM L-cyteine.
To 1 ml aliquots of cell suspension, test drugs or vehicle are added, then preincubated at 37° C. for 10 minutes. […] Supernatants are then analyzed by HPLC analysis on a 15 cm×4.6 mm ID Supelcosil LC-18 (Supelco)(3M) column, using a two solvent system at a flow rate of 1.4 ml total flow as follows: […]
Injections: 150 μl of each supernatant is injected directly onto column and ^3 H arachidonic acid metabolites are monitored using an on-line radioactivity detector (Ramona, IN/US, Fairfield, NJ). […]

Test [4] has as its system synthesis of the arachidonic acid cyclooxygenase oxidation product TxB2. Briefly: inhibition of the synthesis of the cyclooxygenase oxidation product TxB2 by rat polymorphonuclear leukocytes. It counts as cell-based, rat (female Wistar). The conditions noted are these: Leukocyte; rat PMN, A23187 stimulated. The method, then: as §4
To 1 ml aliquots of cell suspension, test drugs or vehicle are added, then preincubated at 37° C. for 10 minutes. A23187 (1 μM) and [^3 H]-AA (3.0 μCi/ml) are then added and the samples are further incubated for 10 minutes. The reaction is terminated by centrifugation and pelleting cells. Supernatants are then analyzed by HPLC analysis on a 15 cm×4.6 mm ID Supelcosil LC-18 (Supelco)(3M) column, using a two solvent system at a flow rate of 1.4 ml total flow as follows:
Co-chromatography with standard [^3 H] leukotriene B4 (LTB4) in medium of stimulated PMN exposed to drug is compared to that found in medium of stimulated cells exposed to no drug, generating percent inhibition.
In this assay, the procedure of Example 3 is carried out as described. […]
The results are calculated as in Example 3 and presented below: […]

Test [5] has as its system synthesis of PGE2 by murine peritoneal macrophages. Briefly: inhibition of the synthesis of PGE2 by murine peritoneal macrophages. The test is classed as cell-based, mouse (CD-1). The note with it: Mus musculus, Peritoneal macrophage, zymosan or TPA stimulus, RIA. The method, then:
as §1, §2, §3

Here are results for three molecules from patent US4870210A, “Aminoguanidine derivative as anti-inflammatory agents” (American Home Products Corporation, priority 1987, dated 1989).

The structures appear in SMILES notation.

As for `CC(=O)Oc1ccccc1C(=O)O` [Aspirin], the ED50 in test [1] worked out at 145 mg/kg.

In the case of `CC(=NNC(=N)N)c1cccc(OCc2ccc3ccccc3c2)c1` [Example 1, 2-[1-[3-(2-Naphthalenylmethoxy)phenyl]ethylidene]-hydrazinecarboximidamide], the IC50 came to 33 µM in test [2], 8.9 µM in test [3], 11.2 µM in test [4] and 43 µM in test [5].

With `COc1ccc2c(c1)c(CC(=O)O)c(C)n2C(=O)c1ccc(Cl)cc1` [Indomethacin], in test [1], the ED50 turned out to be 3.7 mg/kg.
